# Assay results as given in patent US20250346613A1, “BORIC ACID PROTEASOME INHIBITOR AND USE THEREOF” (ARTIVILA BIOPHARMA, priority 2022, published 2025).
# Tested on: MM.1S cell strain
# Test: Inhibitory activity of cell strain (CellTiter-Glo)
# Type: cell-based
# Conditions: Homo sapiens, MM1.S, 72 h incubation
# Protocol: The cells used in this experiment were MM.1S cell strain and the detection reagent was CellTiter-Glo (Promega). […] The experimental process was described below. MM.1S cells in the logarithmic growth phase and in a good status were digested into individual cells by trypsin, centrifuged to remove the supernatant, and counted. Cells were diluted and 100 μL of cell suspension per well was added to a 96-well enzyme-coated plate at 1×10^5 cells per well. The wells containing only RPMI1640 complete medium were set as blank control. The 96-well plate was transferred to a 37° C. incubator containing 5% CO2 for 24 h of incubation.
# The compound was accurately weighed and dissolved in DMSO to a concentration of 10^−2 M. 10 μL of compound was pipetted to 190 μL of DMSO to given a 5×10^−4 M compound. 6 μL of the compound (5×10^−5 M) was pipetted to a new 96-well microplate containing 194 μL of RPMI1640 complete medium and diluted in a 3-fold gradient dilution. 50 μL of the diluted compound was transferred to the 96-well microplate containing the cells such that the final compound concentrations were 5×10^−7 M, 1.67×10^−7 M, 5.55×10^−8 M, 1.85×10^−8 M, 6.17×10^−9 M, 2.06×10^−9 M, 6.86×10^−10 M, 2.29×10^−10 M, and 0 M. For the 0 M, no compound was added, and the same concentration of DMSO was added. The marketed drug bortezomib was used as a positive control. The 96-well microplate added with compounds was placed in the 37° C. incubator for 72 h of incubation.
# At the predetermined detection time, the 96-well microplate to be detected was placed at room temperature, added with 40 μL of detection reagent (CellTiter-Glo) per well, and covered with a dark lid or piece of aluminium foil. The contents were mixed on an orbit oscillator for 10 min for complete cell lysis, with a vibration speed of 150 rpm. Luminescence values were detected on a multifunctional microplate reader (BioTek Synergy H1 Hybrid Multi-Mode Reade).
# The data were exported and the percentage inhibition was calculated according to the following formula: Inhibition rate=(maximum signal value-compound signal value)/(maximum signal value−blank signal value)×100%, • wherein maximum signal was obtained from alone DMSO-treated cells, and blank signal was obtained from wells containing only culture medium.
row,Compound,IC50 [nM]
1,O=C(/C=C/C(=O)N[C@@H](Cc1ccccc1)B(O)O)Nc1ccccc1 [Example 8],50 to 200
2,Cc1ccc(CNC(=O)/C=C/C(=O)N[C@@H](CC(C)C)B(O)O)cc1 [Example 11],200 to 500
3,O=C(/C=C/C(=O)N[C@@H](Cc1ccccc1)B(O)O)NCc1cc(Cl)ccc1Cl [Example 12],200 to 500
4,"[2H]/C(C(=O)NCc1ccccc1)=C(/[2H])C(=O)N[C@@H](Cc1ccccc1)B(O)O [Example 17, (R,E)-(1-(4-(benzylamino)-4-oxobut-2-enamido-2,3-D2)-2-phenylethyl)boric acid]",50 to 200
5,"COc1cccc(CCNC(=O)C(C)C(=O)N[C@@H](Cc2ccccc2)B(O)O)c1 (stereo partly drawn) [Example 61, ((1R)-1-(3-((3-methoxyphenylethyl)amino)-2-methyl-3-oxopropionamido)-2-phenylethyl)boric acid]",50 to 200
6,"COc1cccc(NC(=O)C(C)C(=O)N[C@@H](Cc2ccccc2)B(O)O)c1 (stereo partly drawn) [Example 67, ((1R)-1-(3-((3-methoxyphenyl)amino)-2-methyl-3-oxopropionamido)-2-phenylethyl)boric acid]",50 to 200
7,"COc1ccc(NC(=O)C(C)C(=O)N[C@@H](Cc2ccc(C)cc2)B(O)O)cc1 (stereo partly drawn) [Example 70, ((1R)-1-(3-((4-methoxyphenyl)amino)-2-methyl-3-oxopropionamido)-2-(p-tolyl)ethyl)boric acid]",50 to 200
8,"COc1cccc(CNC(=O)C(Cc2ccccc2)C(=O)N[C@@H](Cc2coc3ccccc23)B(O)O)c1 (stereo partly drawn) [Example 71, ((1R)-2-(benzofuran-3-yl)-1-(2-benzyl-3-((3-methoxybenzyl)amino)-3-oxopropionamido)ethyl)boric acid]",≤ 50
9,"COc1cccc(CNC(=O)C(Cc2ccccc2)C(=O)N[C@@H](Cc2ccc(-c3ccccc3)cc2)B(O)O)c1 (stereo partly drawn) [Example 72, ((1R)-2-([1,1′-biphenyl]-4-yl)-1-(2-benzyl-3-((3-methoxybenzyl)amino)-3-oxopropionamido)ethyl)boric acid]",≤ 50
10,"CC(C(=O)NCc1cccc(OC(F)(F)F)c1)C(=O)N[C@@H](Cc1ccc(-c2ccccc2)cc1)B(O)O (stereo partly drawn) [Example 74, ((1R)-2-([1,1′-biphenyl]-4-yl)-1-(2-methyl-3-oxo-3-((3-(trifluoromethoxy)benzyl)amino)propanamido)ethyl)boronic acid]",≤ 50
11,"COc1cccc(CNC(=O)C(C(=O)N[C@@H](Cc2ccc(-c3ccccc3)cc2)B(O)O)C(C)C)c1 (stereo partly drawn) [Example 76, ((1R)-2-([1,1′-biphenyl]-4-yl)-1-(2-((3-methoxybenzyl)carbamoyl)-3-methylbutanamido)ethyl)boric acid]",≤ 50
12,"CC(C(=O)NCc1cccc(C(F)(F)F)c1)C(=O)N[C@@H](Cc1ccc(-c2ccccc2)cc1)B(O)O (stereo partly drawn) [Example 78, ((1R)-2-([1,1′-biphenyl]-4-yl)-1-(2-methyl-3-oxo-3-((3-(trifluoromethyl)benzyl)amino)propionamido)ethyl)boric acid]",≤ 50
13,"Cc1ccc(C[C@H](NC(=O)C(C)C(=O)NCc2cccc(OC(F)(F)F)c2)B(O)O)cc1 (stereo partly drawn) [Example 86, ((1R)-1-(2-methyl-3-oxo-3-((3-(trifluoromethoxy)benzyl)amino)propionamido)-2-(p-tolyl)ethyl)boric acid]",≤ 50

# Second part, the compound after the results:
row,IC50 [nM],Compound
1,≤ 50,"O=C(NCc1cccc(OC(F)(F)F)c1)C(F)C(=O)N[C@@H](Cc1ccccc1)B(O)O (stereo partly drawn) [Example 95, ((1R)-1-(2-fluoro-3-oxo-3-((3-(trifluoromethoxy)benzyl)amino)propionamido)-2-phenylethyl)boric acid]"
2,≤ 50,"Cc1ccc(C[C@H](NC(=O)C(F)C(=O)NCc2cccc(OC(F)(F)F)c2)B(O)O)cc1 (stereo partly drawn) [Example 96, ((1R)-1-(2-fluoro-3-oxo-3-((3-(trifluoromethoxy)benzyl)amino)propionamido)-2-(p-tolyl)ethyl)boric acid]"
3,≤ 50,"O=C(NCc1cccc(OC(F)(F)F)c1)C(F)C(=O)N[C@@H](Cc1coc2ccccc12)B(O)O (stereo partly drawn) [Example 97, ((1R)-2-(Benzofuran-3-yl)-1-(2-fluoro-3-oxo-3-((3-(trifluoromethoxy)benzyl)amino)propionamido)ethyl)boric acid]"
4,200 to 500,"Cc1ccc(C[C@H](NC(=O)C(F)(F)C(=O)NCc2cccc(OC(F)(F)F)c2)B(O)O)cc1 [Example 98, (R)-(1-(2,2-difluoro-3-oxo-3-((3-(trifluoromethoxy)benzyl)amino)propionamido)-2-(p-tolyl)ethyl)boric acid]"
5,≤ 50,"COc1cccc(CCNC(=O)C(F)C(=O)N[C@@H](Cc2coc3ccccc23)B(O)O)c1 (stereo partly drawn) [Example 101, ((1R)-2-(Benzofuran-3-yl)-1-(2-fluoro-3-((3-methoxyphenylethyl)amino)-3-oxopropionamido)ethyl)boric acid]"
6,≤ 50,"COc1cccc(CNC(=O)C(F)C(=O)N[C@@H](Cc2ccccc2)B(O)O)c1 (stereo partly drawn) [Example 102, ((1R)-1-(2-fluoro-3-((3-methoxybenzyl)amino)-3-oxopropionamido)-2-phenylethyl)boric acid]"
7,≤ 50,"COc1cccc(CNC(=O)C(F)C(=O)N[C@@H](Cc2ccc(C)cc2)B(O)O)c1 (stereo partly drawn) [Example 103, ((1R)-1-(2-fluoro-3-((3-methoxybenzyl)amino)-3-oxopropionamido)-2-(p-tolyl)ethyl)boric acid]"
8,≤ 50,"COc1cccc(CNC(=O)C(F)C(=O)N[C@@H](Cc2coc3ccccc23)B(O)O)c1 (stereo partly drawn) [Example 104, ((1R)-2-(benzofuran-3-yl)-1-(2-fluoro-3-((3-methoxybenzyl)amino)-3-oxopropionamido)ethyl)boric acid]"

# Biological target: T1, β5i subunit of the 20S proteasome (Homo sapiens, UniProt P20618+P28062)
# T1 construct: The proteasome tested in the present disclosure was derived from Raji cells; endogenous in cells; host or cells: Raji cells
# Test: Proteasome inhibitory activity, β5i subunit (Raji cells treated with compound, lysed, Ac-ANW-AMC substrate)
# Type: cell-based
# Conditions: proteasome from Raji cells incubated with compound 4 h
# Source text: In the present disclosure, the fluorescent peptide substrate Ac-Ala-Asn-Trp-AMC (abbreviated as Ac-ANW-AMC) and the […] kit containing a fluorescent peptide substrate Suc-Leu-Leu-Val-Tyr-AMC (abbreviated as Suc-LLVY-AMC) (Promega, Item No. G8660) were used to detect the activities of the β5i subunit and β5c subunit of the 20S proteasome, respectively.
# The proteasome tested in the present disclosure was derived from Raji cells, the fluorescent substrate Ac-ANW-AMC was purchased from Roche company, and other reagents were purchased from Sigma company. The experimental system was divided into two parts of cell lysis system and enzyme reaction system. […] The starting concentration of the compound (inhibitor) was 1 μM. It was diluted in a 3-fold serial dilution to a total of 8 concentrations, that is, the administration concentration can be 1 μM, 0.333 μM, 0.111 μM . . . , respectively, and the specific experimental process was described below.
# Raji cells (1×10^6 cells) cryopreserved in liquid nitrogen were thawed rapidly in a water bath at 37° C. The cell pellet was transferred to a 15 mL centrifuge tube, added with 9 mL of fresh medium (Gibco RPMI1640 added with 10% fetal bovine serum and 1% double antibiotics), centrifuged at 120 g for 5 min, inoculated to 25 mL cell culture flasks, and passaged once every 2-3 days.
# The compound was weighed and dissolved in DMSO to a concentration of 10 mM. The compound was then sequentially diluted to concentrations of 200 μM, 66.67 μM, 22.22 μM, 7.41 μM, 2.47 μM, 0.82 μM, 0.27 μM, and 0.091 μM with fresh medium. Raji cells in a good growth status were inoculated into a 48-well cell culture plate at 7×10^5 cells/mL.
# Raji cells in a good growth status were taken and counted. They were then inoculated to a 48-well cell culture plate at 7×10^5 cells/mL. Each 5 μL of the various concentrations of diluted compounds above were taken and added to the culture plate inoculated with cells, and the lowest concentration of compound was 0 μM. The drug bortezomib (Velcade) and ONX-0914 were used as the positive control compounds. All cells were incubated at 37° C. for 4 h.
# The compound-treated cells were sequentially transferred into 1.5 mL centrifuge tubes, centrifuged at 10000 rpm for 2 min, and the supernatants were removed. The cell pellet was resuspended in 1 mL of PBS, centrifuged at 10000 rpm for 2 min, and the supernatant was removed. Cells were resuspended by adding 100 μL of cell lysate (50 mM Tris of pH 7.5, 150 mM NaCl, 5 mM MgCl2, 5 mM ATP, 1 mM DTT, 0.01% NP-40, 1 mM Digitonin, and Cocktail), placed in an ice bath for 30 min, and centrifuged at 13000 rpm for 10 min.
# 2 mg of fluorescent peptide substrate AC-ANW-AMC was dissolved in 424.7 μL of DMSO to obtain an 8 mM stock solution, and stored at −20° C. The stock solution was diluted 100-fold to a final concentration of […] for use in the reaction system. The fluorescent peptide substrate Suc-LLVY-AMC was prepared according to the instructions of the Promega kit.
# Each 20 μL of the prepared proteasome solution above was added to a 96-well white luciferase microplate and added with 25 μL of AC-ANW-AM substrate buffer solution (50 mM Tris of pH 7.5, 150 mM NaCl, 5 mM MgCl2, 5 mM ATP, 80 uM Ac-ANW-AMC and 1 mM DTT) and 25 μL of Suc-LLVY-AMC substrate buffer solution for 10 min of reaction at 37° C. in the dark. Fluorescence values were read at 345 nm/445 nm by using a fluorence microplate reader.
# The data were exported and the inhibition rate in percentage was calculated according to the following formula: Inhibition rate=(maximum signal value-compound signal value)/(maximum signal value−blank signal value)×100%.
# Where the maximum signal was obtained from cell lysates treated with DMSO only, and the blank signal was obtained from wells containing only lysates.
row,IC50 [nM],Compound
1,50 to 200,O=C(/C=C/C(=O)N[C@@H](Cc1ccccc1)B(O)O)Nc1ccccc1 [Example 8]
